# Laboratory results from the supplement of paper PMC10307832.
# How the values were obtained:
# Assay in all cases: relative viability (nuclei count vs DMSO), 5 days (fraction); higher = more cells survive
# [1] = compound: COc1cccc2c1C(=O)c1c(O)c3c(c(O)c1C2=O)C[C@@](O)(C(=O)CO)C[C@@H]3O[C@H]1C[C@H](N)[C@H](O)[C@H](C)O1 [Doxorubicin] + CC(=O)c1c(C)c2cnc(Nc3ccc(N4CCNCC4)cn3)nc2n(C2CCCC2)c1=O [Palbociclib] (partner 0.5 µM)
# In short: (§1)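 Five library-drug doses in √10 steps were combined with a fixed anchor-drug dose, or a single drug was given alone, by pin tool to lung cancer cell lines in 1536-well plates the day after seeding. Nuclei were stained and counted after 5 days. Relative viability is the nuclei count in treated wells over that in vehicle wells, taken as the median of duplicate plates.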
# BAY61-3606 + Linsitinib = compound: COC1=C(C=C(C=C1)C2=CC3=NC=CN3C(=N2)NC4=C(C=CC=N4)C(=O)N)OC [BAY61-3606] + C[C@]1(O)C[C@@H](c2nc(-c3ccc4ccc(-c5ccccc5)nc4c3)c3c(N)nccn32)C1 [Linsitinib] (partner 1 µM)
# In short: as §1
# Doxorubicin + Dasatinib = compound: COc1cccc2c1C(=O)c1c(O)c3c(c(O)c1C2=O)C[C@@](O)(C(=O)CO)C[C@@H]3O[C@H]1C[C@H](N)[C@H](O)[C@H](C)O1 [Doxorubicin] + Cc1nc(Nc2ncc(C(=O)Nc3c(C)cccc3Cl)s2)cc(N2CCN(CCO)CC2)n1 [Dasatinib] (partner 0.075 µM)
# In short: as §1
# BAY61-3606 + Bortezomib = compound: COC1=C(C=C(C=C1)C2=CC3=NC=CN3C(=N2)NC4=C(C=CC=N4)C(=O)N)OC [BAY61-3606] + CC(C)C[C@H](NC(=O)[C@H](Cc1ccccc1)NC(=O)c1cnccn1)B(O)O [Bortezomib] (partner 0.002 µM)
# In short: as §1
Cell Line,relative viability ([1]; first compound 0.001 µM),relative viability ([1]; first compound 0.003162 µM),relative viability ([1]; first compound 0.01 µM),relative viability ([1]; first compound 0.03162 µM),relative viability ([1]; first compound 0.1 µM),relative viability (BAY61-3606 + Linsitinib; first compound 0.02 µM),relative viability (BAY61-3606 + Linsitinib; first compound 0.2 µM),relative viability (BAY61-3606 + Linsitinib; first compound 0.6325 µM),relative viability (BAY61-3606 + Linsitinib; first compound 2 µM),relative viability (Doxorubicin + Dasatinib; first compound 0.001 µM),relative viability (Doxorubicin + Dasatinib; first compound 0.003162 µM),relative viability (Doxorubicin + Dasatinib; first compound 0.01 µM),relative viability (Doxorubicin + Dasatinib; first compound 0.03162 µM),relative viability (Doxorubicin + Dasatinib; first compound 0.1 µM),relative viability (BAY61-3606 + Bortezomib; first compound 0.02 µM),relative viability (BAY61-3606 + Bortezomib; first compound 0.06325 µM),relative viability (BAY61-3606 + Bortezomib; first compound 0.2 µM),relative viability (BAY61-3606 + Bortezomib; first compound 0.6325 µM),relative viability (BAY61-3606 + Bortezomib; first compound 2 µM),relative viability (BAY61-3606 + Linsitinib; first compound 0.06325 µM)
LCLC-97TM1,0.229,0.205,0.222,0.199,0.238,0.182,0.187,0.18,0.175,0.836,0.776,0.831,0.734,0.884,0.639,0.73,0.527,0.533,0.702,–
LCLC-103H,0.468,0.508,0.5,0.457,0.41,1.07,1.12,1.37,1.13,0.507,0.6,0.446,0.381,0.552,1.28,1.01,1.03,1.07,1.05,1.13
LOU-NH91,–,0.459,0.564,0.526,0.416,0.978,0.977,1.01,0.796,0.488,0.646,0.529,0.531,0.474,0.52,0.485,0.462,0.467,0.454,0.858
LU99A,0.449,0.521,0.44,0.41,0.417,0.544,0.575,0.501,0.318,0.359,0.526,0.527,0.422,0.361,1.14,1.21,1.18,1.12,0.709,0.548
LXF-289,0.589,0.625,0.549,0.634,0.607,0.906,0.948,1.05,0.569,0.224,0.293,0.241,0.238,0.281,0.985,1.03,0.992,1.04,0.99,1.02
NCI-H23,0.503,0.568,0.479,0.428,0.44,0.613,0.609,0.881,0.423,–,1.01,0.88,0.668,0.547,0.97,1.36,0.871,1.13,0.77,0.689
NCI-H322M,0.548,0.482,0.486,0.465,0.465,1.05,0.911,0.925,0.878,0.29,0.237,0.27,0.275,0.272,1.27,1.27,1.19,1.1,1.14,0.946
NCI-H441,0.227,0.217,0.229,0.153,0.195,0.646,0.626,0.535,0.38,–,0.585,0.332,0.166,0.213,0.729,0.51,0.479,0.607,0.434,0.628
NCI-H460,0.103,0.108,0.0853,0.041,0.007,1.03,0.752,0.822,0.189,0.507,0.427,0.405,0.171,0.0701,1.12,1.12,1.05,0.92,0.548,0.77
NCI-H520,0.213,0.216,0.183,0.175,0.203,1.14,1.08,1.16,0.94,0.234,0.218,0.202,0.151,0.183,1.1,0.602,0.843,0.84,0.433,1.04
NCI-H647,0.403,0.492,0.412,0.15,0.239,1.34,1.46,1.05,0.661,0.186,0.212,0.166,0.152,0.0503,1.16,1.06,1.19,1.07,0.696,1.46
NCI-H650,0.371,0.362,0.325,0.293,0.326,1.12,0.781,1.02,0.596,0.432,0.473,0.503,0.461,0.355,0.917,0.766,0.618,0.681,0.72,0.934
NCI-H661,0.384,0.407,0.396,0.36,0.34,0.868,0.627,0.616,0.405,0.829,0.846,0.786,0.412,0.316,0.896,0.713,0.767,0.724,0.556,0.484
NCI-H727,0.655,0.661,–,0.577,0.62,0.258,0.386,0.188,0.354,0.271,0.46,0.305,0.368,0.329,0.844,0.822,0.872,0.856,0.829,0.184
NCI-H838,0.254,0.234,0.229,0.222,0.184,1.12,1.06,1.13,0.891,0.292,0.284,0.228,0.307,0.277,0.954,0.738,0.748,0.822,0.501,1
NCI-H1355,0.423,0.432,0.388,0.38,0.392,0.798,0.799,0.891,0.678,0.723,0.789,0.722,0.706,0.764,1.19,1.07,1.17,1.27,1.21,0.8

Cell Line,relative viability ([1]; first compound 0.001 µM),relative viability ([1]; first compound 0.003162 µM),relative viability ([1]; first compound 0.01 µM),relative viability ([1]; first compound 0.03162 µM),relative viability ([1]; first compound 0.1 µM),relative viability (BAY61-3606 + Linsitinib; first compound 0.02 µM),relative viability (BAY61-3606 + Linsitinib; first compound 0.2 µM),relative viability (BAY61-3606 + Linsitinib; first compound 0.6325 µM),relative viability (BAY61-3606 + Linsitinib; first compound 2 µM),relative viability (Doxorubicin + Dasatinib; first compound 0.001 µM),relative viability (Doxorubicin + Dasatinib; first compound 0.003162 µM),relative viability (Doxorubicin + Dasatinib; first compound 0.01 µM),relative viability (Doxorubicin + Dasatinib; first compound 0.03162 µM),relative viability (Doxorubicin + Dasatinib; first compound 0.1 µM),relative viability (BAY61-3606 + Bortezomib; first compound 0.02 µM),relative viability (BAY61-3606 + Bortezomib; first compound 0.06325 µM),relative viability (BAY61-3606 + Bortezomib; first compound 0.2 µM),relative viability (BAY61-3606 + Bortezomib; first compound 0.6325 µM),relative viability (BAY61-3606 + Bortezomib; first compound 2 µM),relative viability (BAY61-3606 + Linsitinib; first compound 0.06325 µM)
NCI-H1437,0.315,0.327,0.294,0.295,0.26,1.1,1.01,1.03,0.813,0.369,0.391,0.3,0.459,0.152,0.544,0.502,0.433,0.536,0.509,1.1
NCI-H1651,0.517,0.546,0.461,0.449,0.483,0.908,0.91,1.12,0.823,0.334,0.39,0.246,0.154,0.102,1.03,0.99,0.911,0.941,0.952,0.909
NCI-H1666,–,0.646,0.626,0.565,0.568,0.954,0.76,0.954,0.831,0.812,0.811,0.461,0.359,0.318,0.99,–,0.836,0.806,0.683,–
NCI-H1734,0.408,0.425,0.324,0.263,0.344,0.827,0.849,0.866,0.607,0.517,0.572,0.385,0.317,0.255,0.878,0.894,0.836,0.883,0.518,0.853
NCI-H1755,0.473,0.481,0.434,0.474,0.468,1.06,1.03,0.981,0.974,0.444,0.288,0.437,0.434,0.554,0.953,0.961,0.957,1.07,0.923,1.04
NCI-H1792,–,0.668,0.651,0.542,0.558,0.531,0.591,0.627,0.627,–,0.901,0.741,0.769,0.706,0.967,0.987,0.879,0.943,0.976,0.494
NCI-H1915,0.581,0.536,0.549,0.483,0.543,1.1,1.05,1.06,0.854,0.281,0.355,0.308,0.302,0.324,0.929,1,0.9,0.925,0.913,1.06
NCI-H1975,0.413,0.568,0.501,0.383,0.324,1.1,0.891,0.837,0.615,0.406,0.356,0.331,0.304,0.158,0.427,0.349,0.421,0.395,0.244,0.813
NCI-H1993,0.492,0.695,0.639,0.625,0.649,0.688,0.723,0.7,0.741,0.714,0.6,0.512,0.479,0.427,1.08,1.02,0.976,1.12,0.848,0.748
NCI-H2009,0.238,0.207,0.179,0.0594,0.168,1.19,1.18,1.18,1.07,0.308,0.319,0.296,0.272,0.235,1.07,1.02,0.961,1.02,0.83,1.28
NCI-H2023,0.368,0.368,0.254,0.169,0.0764,0.703,0.779,0.715,0.557,0.672,0.588,0.431,0.173,0.0859,1.1,1.08,1.09,1.24,0.735,0.681
NCI-H2085,0.472,0.458,0.461,0.53,0.512,0.977,0.853,0.813,0.871,0.286,0.278,0.224,0.224,0.241,1.11,1.07,1.06,1.13,0.953,0.931
NCI-H2087,0.259,0.216,0.235,0.176,0.227,0.883,0.905,1.16,0.732,–,0.844,0.769,0.475,0.222,0.908,0.862,0.869,0.759,0.746,1.13
NCI-H2126,0.349,0.347,0.371,0.345,0.386,0.757,0.742,0.749,0.691,0.619,0.556,0.55,0.232,0.224,1.11,1.13,1.08,1.08,1.07,0.687
NCI-H2228,0.508,0.914,0.555,0.301,0.184,0.663,0.668,0.714,0.496,0.45,0.598,0.483,0.229,0.112,1.32,1.17,0.916,1.22,0.567,0.552
